Experiments:
Test in all cases: radiometric filter-binding kinase assay
MAPK9 (human) = MAPK9 (human) (UniProt P45984)
MAPK15 (human) = MAPK15 (human) (UniProt Q8TD08)
NEK2 (human) = NEK2 (human) (UniProt P51955)
IGF1R (human) = IGF1R (human) (UniProt P08069)
CHEK1 (human) = CHEK1 (human) (UniProt O14757)
STK3 (human) = STK3 (human) (UniProt Q13188)
SRC (human) = SRC (human) (UniProt P12931)
MAPK10 (human) = MAPK10 (human) (UniProt P53779)
PRKAA1 or PRKAA2 (rat) = settings: accession and sequence are those of the human protein
MAP3K1 (human) = MAP3K1 (human) (UniProt Q13233)
MAPK1 (human) = MAPK1 (human) (UniProt P28482)
MARK2 (human) = MARK2 (human) (UniProt Q7KZI7)
Chain of MARK2 (human) (Q7KZI7 whole entry, looked up): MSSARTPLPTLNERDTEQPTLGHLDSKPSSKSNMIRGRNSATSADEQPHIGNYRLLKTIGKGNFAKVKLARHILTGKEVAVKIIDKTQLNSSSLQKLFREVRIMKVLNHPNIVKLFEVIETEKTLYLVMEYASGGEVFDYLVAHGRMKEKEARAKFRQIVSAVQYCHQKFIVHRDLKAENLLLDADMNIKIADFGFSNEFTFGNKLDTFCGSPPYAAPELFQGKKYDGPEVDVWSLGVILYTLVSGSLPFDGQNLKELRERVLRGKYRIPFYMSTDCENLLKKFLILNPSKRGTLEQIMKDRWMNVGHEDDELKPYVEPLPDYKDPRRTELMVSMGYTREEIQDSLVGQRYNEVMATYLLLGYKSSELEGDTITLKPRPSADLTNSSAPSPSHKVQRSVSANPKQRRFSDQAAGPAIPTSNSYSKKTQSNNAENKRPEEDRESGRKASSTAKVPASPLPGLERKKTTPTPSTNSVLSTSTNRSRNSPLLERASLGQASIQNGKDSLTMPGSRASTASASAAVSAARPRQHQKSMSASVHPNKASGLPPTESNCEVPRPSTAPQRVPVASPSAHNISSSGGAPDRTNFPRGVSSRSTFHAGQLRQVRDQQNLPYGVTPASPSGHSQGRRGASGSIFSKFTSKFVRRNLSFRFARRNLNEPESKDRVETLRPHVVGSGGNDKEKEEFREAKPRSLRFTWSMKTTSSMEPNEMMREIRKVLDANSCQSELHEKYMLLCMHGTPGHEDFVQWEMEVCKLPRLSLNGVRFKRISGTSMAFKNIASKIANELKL

RPS6KA1 KD1 KD2 (human) = RPS6KA1 KD1 KD2 (human) (UniProt Q15418)
Chain of RPS6KA1 KD1 KD2 (human) (Q15418 whole entry, looked up): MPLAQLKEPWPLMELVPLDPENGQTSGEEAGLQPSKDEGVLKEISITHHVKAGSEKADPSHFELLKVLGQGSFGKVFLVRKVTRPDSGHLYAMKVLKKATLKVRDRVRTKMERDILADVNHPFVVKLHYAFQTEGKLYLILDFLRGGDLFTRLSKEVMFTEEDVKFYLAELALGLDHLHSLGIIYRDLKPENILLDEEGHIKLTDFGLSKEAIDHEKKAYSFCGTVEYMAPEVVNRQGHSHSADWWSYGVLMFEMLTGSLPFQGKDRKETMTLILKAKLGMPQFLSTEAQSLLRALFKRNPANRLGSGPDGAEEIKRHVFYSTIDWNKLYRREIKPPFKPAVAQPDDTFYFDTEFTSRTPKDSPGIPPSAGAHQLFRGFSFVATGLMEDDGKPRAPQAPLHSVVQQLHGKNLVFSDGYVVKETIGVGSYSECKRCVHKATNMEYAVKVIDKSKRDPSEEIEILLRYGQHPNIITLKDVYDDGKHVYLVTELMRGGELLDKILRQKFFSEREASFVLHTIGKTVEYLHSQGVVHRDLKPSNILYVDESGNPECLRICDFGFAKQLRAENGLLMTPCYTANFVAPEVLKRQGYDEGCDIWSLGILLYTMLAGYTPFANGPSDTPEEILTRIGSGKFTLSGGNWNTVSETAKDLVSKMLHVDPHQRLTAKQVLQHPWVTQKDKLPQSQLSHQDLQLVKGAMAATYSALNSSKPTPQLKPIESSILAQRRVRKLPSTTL

PKN2 (human) = PKN2 (human) (UniProt Q16513)
EPHB4 (human) = EPHB4 (human) (UniProt P54760)
MKNK2 (human) = MKNK2 (human) (UniProt Q9HBH9)
PHKG1 (human) = PHKG1 (human) (UniProt Q16816)
MAP3K5 (human) = MAP3K5 (human) (UniProt Q99683)
MKNK1 (human) = MKNK1 (human) (UniProt Q9BUB5)
Chain of MKNK1 (human) (Q9BUB5 whole entry, looked up): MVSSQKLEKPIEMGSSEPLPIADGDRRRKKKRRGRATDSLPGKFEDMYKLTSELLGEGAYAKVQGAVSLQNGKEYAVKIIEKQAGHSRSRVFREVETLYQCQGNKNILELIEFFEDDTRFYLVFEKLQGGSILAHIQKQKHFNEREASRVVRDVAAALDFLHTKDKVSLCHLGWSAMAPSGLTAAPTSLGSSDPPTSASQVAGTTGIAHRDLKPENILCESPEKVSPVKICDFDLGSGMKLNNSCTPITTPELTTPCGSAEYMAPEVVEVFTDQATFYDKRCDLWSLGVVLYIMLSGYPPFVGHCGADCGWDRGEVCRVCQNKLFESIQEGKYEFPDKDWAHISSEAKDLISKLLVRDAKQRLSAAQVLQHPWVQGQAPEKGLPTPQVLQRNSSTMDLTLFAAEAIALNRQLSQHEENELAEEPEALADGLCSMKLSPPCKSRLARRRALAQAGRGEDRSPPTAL

PRKACA (human) = PRKACA (human) (UniProt P17612)
PIM2 (human) = PIM2 (human) (UniProt Q9P1W9)
MAPKAPK2 (human) = MAPKAPK2 (human) (UniProt P49137)
Chain of MAPKAPK2 (human) (P49137 whole entry, looked up): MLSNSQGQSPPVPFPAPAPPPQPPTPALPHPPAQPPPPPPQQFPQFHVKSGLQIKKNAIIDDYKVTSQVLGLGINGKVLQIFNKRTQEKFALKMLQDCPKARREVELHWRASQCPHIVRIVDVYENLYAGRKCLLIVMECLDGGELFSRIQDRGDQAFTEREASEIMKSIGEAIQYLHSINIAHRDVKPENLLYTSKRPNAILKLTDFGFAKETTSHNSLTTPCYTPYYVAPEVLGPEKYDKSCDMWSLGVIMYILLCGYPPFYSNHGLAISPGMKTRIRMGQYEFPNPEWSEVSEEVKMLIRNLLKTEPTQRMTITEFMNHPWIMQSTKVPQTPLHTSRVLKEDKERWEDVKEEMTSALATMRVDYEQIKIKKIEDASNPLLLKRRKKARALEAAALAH

MAPK3 (human) = MAPK3 (human) (UniProt P27361)
MINK1 (human) = MINK1 (human) (UniProt Q8N4C8)
CAMKK2 (human) = CAMKK2 (human) (UniProt Q96RR4)
GCK (human) = GCK (human) (UniProt Q12851)
AURKB (human) = AURKB (human) (UniProt Q96GD4)
CHEK2 (human) = CHEK2 (human) (UniProt O96017)
Chain of CHEK2 (human) (O96017 whole entry, looked up): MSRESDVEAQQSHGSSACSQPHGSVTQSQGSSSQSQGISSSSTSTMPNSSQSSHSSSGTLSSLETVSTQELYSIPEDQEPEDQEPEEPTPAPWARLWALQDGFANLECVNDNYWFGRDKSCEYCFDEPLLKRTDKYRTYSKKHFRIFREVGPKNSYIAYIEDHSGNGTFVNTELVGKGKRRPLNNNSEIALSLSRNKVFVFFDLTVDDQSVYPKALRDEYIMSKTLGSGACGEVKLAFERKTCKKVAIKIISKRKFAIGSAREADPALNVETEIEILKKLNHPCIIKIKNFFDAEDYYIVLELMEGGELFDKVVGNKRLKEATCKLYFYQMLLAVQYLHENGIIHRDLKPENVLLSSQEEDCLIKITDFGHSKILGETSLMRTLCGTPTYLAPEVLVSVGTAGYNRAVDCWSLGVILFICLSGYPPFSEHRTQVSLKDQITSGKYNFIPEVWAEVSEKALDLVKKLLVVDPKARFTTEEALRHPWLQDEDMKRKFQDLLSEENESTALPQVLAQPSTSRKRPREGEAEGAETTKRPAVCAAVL

MAP2K1 (human) = MAP2K1 (human) (UniProt Q02750)
Chain of MAP2K1 (human) (Q02750 whole entry, looked up): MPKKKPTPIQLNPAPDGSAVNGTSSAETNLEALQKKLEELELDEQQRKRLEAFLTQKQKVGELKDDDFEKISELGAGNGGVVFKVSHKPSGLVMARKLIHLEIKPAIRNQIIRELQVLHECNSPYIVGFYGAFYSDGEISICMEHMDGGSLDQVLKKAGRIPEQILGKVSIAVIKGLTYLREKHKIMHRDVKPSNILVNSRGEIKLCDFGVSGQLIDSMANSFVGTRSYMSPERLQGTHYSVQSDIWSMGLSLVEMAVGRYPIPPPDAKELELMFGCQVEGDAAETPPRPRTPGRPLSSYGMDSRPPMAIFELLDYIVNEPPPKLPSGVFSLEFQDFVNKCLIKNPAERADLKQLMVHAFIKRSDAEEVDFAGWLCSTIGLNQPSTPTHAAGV

YES1 (human) = YES1 (human) (UniProt P07947)
[1] = biological target: STK11 CAB39 STRADA (human) (UniProt Q9Y376+Q7RTN6+Q15831)
PRKCA (human) = PRKCA (human) (UniProt P17252)
[2] = test system: AKT2 (human), P31751 [S474D]
IKBKB (human) = IKBKB (human) (UniProt O14920)
NTRK1 (human) = NTRK1 (human) (UniProt P04629)

Chain of MAPK10 (human) (P53779 whole entry, looked up): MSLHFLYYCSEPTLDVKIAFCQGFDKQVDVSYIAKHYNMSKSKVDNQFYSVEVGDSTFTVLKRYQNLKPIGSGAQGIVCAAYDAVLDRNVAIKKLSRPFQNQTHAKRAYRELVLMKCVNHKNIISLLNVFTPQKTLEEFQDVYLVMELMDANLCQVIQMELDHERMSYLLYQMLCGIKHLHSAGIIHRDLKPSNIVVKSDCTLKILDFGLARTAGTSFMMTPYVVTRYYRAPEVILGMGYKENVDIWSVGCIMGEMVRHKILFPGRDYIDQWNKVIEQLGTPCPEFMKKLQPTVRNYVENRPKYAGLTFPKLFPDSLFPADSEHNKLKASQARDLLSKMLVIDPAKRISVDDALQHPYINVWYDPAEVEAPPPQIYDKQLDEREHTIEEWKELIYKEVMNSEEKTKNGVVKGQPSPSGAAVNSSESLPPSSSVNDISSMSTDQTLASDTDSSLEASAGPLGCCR
Chain of NEK2 (human) (P51955 whole entry, looked up): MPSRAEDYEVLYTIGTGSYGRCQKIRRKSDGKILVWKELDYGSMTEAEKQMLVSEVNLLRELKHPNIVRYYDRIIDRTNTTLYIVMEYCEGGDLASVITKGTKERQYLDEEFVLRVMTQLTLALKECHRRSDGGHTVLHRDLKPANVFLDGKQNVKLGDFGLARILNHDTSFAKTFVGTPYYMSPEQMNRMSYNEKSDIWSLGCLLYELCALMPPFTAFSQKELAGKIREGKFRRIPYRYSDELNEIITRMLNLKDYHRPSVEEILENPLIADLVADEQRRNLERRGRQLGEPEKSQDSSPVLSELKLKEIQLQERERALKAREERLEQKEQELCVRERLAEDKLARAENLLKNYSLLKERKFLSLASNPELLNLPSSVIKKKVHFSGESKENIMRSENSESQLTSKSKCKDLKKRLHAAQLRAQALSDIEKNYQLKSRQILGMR
Chain of MAPK15 (human) (Q8TD08 whole entry, looked up): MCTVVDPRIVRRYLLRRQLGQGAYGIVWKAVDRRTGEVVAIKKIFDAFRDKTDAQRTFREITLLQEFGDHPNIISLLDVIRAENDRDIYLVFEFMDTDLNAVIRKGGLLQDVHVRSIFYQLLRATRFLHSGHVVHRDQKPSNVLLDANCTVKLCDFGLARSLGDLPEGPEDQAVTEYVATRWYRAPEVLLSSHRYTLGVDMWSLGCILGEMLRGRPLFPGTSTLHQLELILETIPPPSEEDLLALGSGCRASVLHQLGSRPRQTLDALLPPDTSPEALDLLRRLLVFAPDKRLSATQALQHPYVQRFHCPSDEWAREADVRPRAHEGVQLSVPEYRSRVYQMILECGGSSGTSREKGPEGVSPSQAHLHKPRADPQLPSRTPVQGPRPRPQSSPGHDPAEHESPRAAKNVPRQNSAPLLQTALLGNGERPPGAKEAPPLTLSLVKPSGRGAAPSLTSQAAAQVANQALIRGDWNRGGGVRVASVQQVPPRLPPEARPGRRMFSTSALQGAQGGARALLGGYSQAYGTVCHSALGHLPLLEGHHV

With `Cc1ccc(-c2ccc3c(ccc4sc5c(c43)NC[C@@H](C)NC5=O)n2)cn1` the residual activity (MAPK9 (human); compound 0.1 µM) was 123%, the residual activity (MAPK9 (human); compound 1.0 µM) was 111% and the residual activity (MAPK9 (human); compound 10.0 µM) was 107%. The residual activity (MAPK15 (human); compound 0.1 µM) was 96%, the residual activity (MAPK15 (human); compound 1.0 µM) was 79% and the residual activity (MAPK15 (human); compound 10.0 µM) was 38%. It also gave a residual activity (NEK2 (human); compound 0.1 µM) of 108%, a residual activity (NEK2 (human); compound 1.0 µM) of 99% and a residual activity (NEK2 (human); compound 10.0 µM) of 88%. For the same compound, the residual activity (IGF1R (human); compound 0.1 µM) was 101%, the residual activity (IGF1R (human); compound 1.0 µM) was 108% and the residual activity (IGF1R (human); compound 10.0 µM) was 114%. The residual activity (CHEK1 (human); compound 1.0 µM) was 109%, the residual activity (CHEK1 (human); compound 10.0 µM) was 112% and the residual activity (STK3 (human); compound 0.1 µM) was 131%. The residual activity (STK3 (human); compound 10.0 µM) was 100%, the residual activity (SRC (human); compound 0.1 µM) was 110% and the residual activity (SRC (human); compound 1.0 µM) was 116%. The residual activity (SRC (human); compound 10.0 µM) was 100%, the residual activity (MAPK10 (human); compound 0.1 µM) was 120% and the residual activity (MAPK10 (human); compound 1.0 µM) was 104%. For the same compound, the residual activity (MAPK10 (human); compound 10.0 µM) was 102%, the residual activity (PRKAA1 or PRKAA2 (rat); compound 0.1 µM) was 93% and the residual activity (PRKAA1 or PRKAA2 (rat); compound 1.0 µM) was 38%. For the same compound, the residual activity (PRKAA1 or PRKAA2 (rat); compound 10.0 µM) was 9%, the residual activity (MAP3K1 (human); compound 0.1 µM) was 102% and the residual activity (MAP3K1 (human); compound 1.0 µM) was 109%. For the same compound, the residual activity (MAP3K1 (human); compound 10.0 µM) was 109%, the residual activity (MAPK1 (human); compound 0.1 µM) was 102% and the residual activity (MAPK1 (human); compound 10.0 µM) was 81%. It also gave a residual activity (MARK2 (human); compound 0.1 µM) of 116%, a residual activity (MARK2 (human); compound 1.0 µM) of 113% and a residual activity (MARK2 (human); compound 10.0 µM) of 95%. It also gave a residual activity (RPS6KA1 KD1 KD2 (human); compound 0.1 µM) of 106%, a residual activity (RPS6KA1 KD1 KD2 (human); compound 1.0 µM) of 100% and a residual activity (RPS6KA1 KD1 KD2 (human); compound 10.0 µM) of 76%. It also gave a residual activity (PKN2 (human); compound 0.1 µM) of 108%, a residual activity (PKN2 (human); compound 1.0 µM) of 101% and a residual activity (PKN2 (human); compound 10.0 µM) of 81%. For the same compound, the residual activity (EPHB4 (human); compound 0.1 µM) was 110%, the residual activity (EPHB4 (human); compound 1.0 µM) was 106% and the residual activity (EPHB4 (human); compound 10.0 µM) was 99%. It also gave a residual activity (MKNK2 (human); compound 0.1 µM) of 111%, a residual activity (MKNK2 (human); compound 10.0 µM) of 26% and a residual activity (PHKG1 (human); compound 0.1 µM) of 110%. For the same compound, the residual activity (PHKG1 (human); compound 1.0 µM) was 91%, the residual activity (PHKG1 (human); compound 10.0 µM) was 86% and the residual activity (MAP3K5 (human); compound 0.1 µM) was 106%. The residual activity (MAP3K5 (human); compound 1.0 µM) was 80%, the residual activity (MAP3K5 (human); compound 10.0 µM) was 10% and the residual activity (MKNK1 (human); compound 0.1 µM) was 105%. It also gave a residual activity (MKNK1 (human); compound 1.0 µM) of 103%, a residual activity (MKNK1 (human); compound 10.0 µM) of 83% and a residual activity (PRKACA (human); compound 0.1 µM) of 109%. It also gave a residual activity (PRKACA (human); compound 1.0 µM) of 119%, a residual activity (PRKACA (human); compound 10.0 µM) of 108% and a residual activity (PIM2 (human); compound 0.1 µM) of 103%. It also gave a residual activity (PIM2 (human); compound 1.0 µM) of 103%, a residual activity (PIM2 (human); compound 10.0 µM) of 66% and a residual activity (MAPKAPK2 (human); compound 0.1 µM) of 24%. It also gave a residual activity (MAPKAPK2 (human); compound 1.0 µM) of 9%, a residual activity (MAPKAPK2 (human); compound 10.0 µM) of 2% and a residual activity (MAPK3 (human); compound 0.1 µM) of 111%. For the same compound, the residual activity (MAPK3 (human); compound 1.0 µM) was 108%, the residual activity (MINK1 (human); compound 1.0 µM) was 97% and the residual activity (MINK1 (human); compound 10.0 µM) was 40%. The residual activity (CAMKK2 (human); compound 0.1 µM) was 107%, the residual activity (CAMKK2 (human); compound 10.0 µM) was 28% and the residual activity (GCK (human); compound 0.1 µM) was 109%. It also gave a residual activity (GCK (human); compound 1.0 µM) of 89%, a residual activity (GCK (human); compound 10.0 µM) of 19% and a residual activity (AURKB (human); compound 0.1 µM) of 109%. It also gave a residual activity (AURKB (human); compound 1.0 µM) of 99%, a residual activity (AURKB (human); compound 10.0 µM) of 64% and a residual activity (CHEK2 (human); compound 0.1 µM) of 112%. It also gave a residual activity (CHEK2 (human); compound 1.0 µM) of 51%, a residual activity (CHEK2 (human); compound 10.0 µM) of 9% and a residual activity (MAP2K1 (human); compound 0.1 µM) of 101%. The residual activity (MAP2K1 (human); compound 1.0 µM) was 97%, the residual activity (MAP2K1 (human); compound 10.0 µM) was 69% and the residual activity (YES1 (human); compound 0.1 µM) was 112%. It also gave a residual activity (YES1 (human); compound 1.0 µM) of 89%, a residual activity (YES1 (human); compound 10.0 µM) of 55% and a residual activity ([1]; compound 0.1 µM) of 118%. The residual activity ([1]; compound 1.0 µM) was 103%, the residual activity ([1]; compound 10.0 µM) was 97% and the residual activity (PRKCA (human); compound 0.1 µM) was 101%. The residual activity (PRKCA (human); compound 10.0 µM) was 90%, the residual activity ([2]; compound 1.0 µM) was 90% and the residual activity ([2]; compound 10.0 µM) was 69%. It also gave a residual activity (IKBKB (human); compound 0.1 µM) of 115%, a residual activity (IKBKB (human); compound 1.0 µM) of 109% and a residual activity (IKBKB (human); compound 10.0 µM) of 101%. The residual activity (NTRK1 (human); compound 1.0 µM) was 100% and the residual activity (NTRK1 (human); compound 10.0 µM) was 83%.
